Data as given in US8916702B2 (priority 2012, dated 2014).
Like-named read-outs stand apart in the source and are kept apart here.

System: HCV pseudoparticles (genotype 1a HCV E1 and E2 envelope, H77C isolate)
Experiment: microbe, parasite or virus in culture
Assay type: cell-based
Conditions: Hepatitis C virus
[1] = Huh-7, 48 h, HCV pseudoparticles (genotype 1a, H77C) in Huh7 cells, average of duplicate, luciferase 2 days after infection
[2] = Huh-7, read-out: Activity (EC50 class), HCV pseudoparticles (genotype 1a, H77C) in Huh7 cells, EC50 expressed as class A/B
[3] = Huh-7, 48 h, HCV pseudoparticle infection of Huh7 cells, luciferase 2 days after infection, average of duplicates
[4] = Huh-7, 48 h, read-out: Activity (EC50 class), HCV pseudoparticle infection of Huh7 cells, luciferase 2 days after infection, EC50 expressed as class A/B
[5] = Huh-7, 48 h, read-out: Activity (EC50 class), HCV pseudoparticles, Huh7 cells, luciferase 2 days after infection, average of duplicates

Row | Structure (SMILES) | EC50 [2] [nM] | EC50 [4] [nM] | also measured
1 | O=C(Nc1ccc(F)cc1)C(=O)N(CCO)CCCNC(=O)c1ccc(Nc2nc(NC3(c4ccc(Cl)cc4)CC3)nc(OCC(F)(F)F)n2)cc1 [Compound 3499] | 0.01 to 10 |  | EC50 [1]: 0.46 nM
2 | COC(=O)[C@H](CCNC(=O)C(=O)NC1Cc2ccccc2C1)NC(=O)c1ccc(Nc2nc(NC3(c4ccc(Cl)cc4)CC3)nc(OCC(F)(F)F)n2)cc1 [Compound 1314] |  | 0.01 to 10 | EC50 [3]: 0.43 nM
3 | COC(=O)[C@H](CCNC(=O)C(=O)Nc1ccc(Cc2ccccc2)cc1)NC(=O)c1ccc(Nc2nc(NC3(c4ccc(Cl)cc4)CC3)nc(OCC(F)(F)F)n2)cc1 [Compound 3120] | 0.01 to 10 |  | 
4 | Cc1nccc(-c2cccc(NC(=O)C(=O)NCC[C@H](NC(=O)c3ccc(Nc4nc(NC5(c6ccc(Cl)cc6)CC5)nc(OCC(F)(F)F)n4)cc3)C(=O)O)c2)n1 [Compound 3625] |  |  | EC50 [5]: 0.01 to 10 nM
5 | CC(C)(CNC(=O)C(=O)Nc1ccc(-c2ccccc2)cc1)CNC(=O)c1ccc(Nc2nc(NC3(c4ccc(Cl)cc4)CC3)nc(OCC(F)(F)F)n2)cc1 [Compound 1590] |  | 0.01 to 10 | 
6 | CC(C)(CNC(=O)C(=O)Nc1ccccn1)CNC(=O)c1ccc(Nc2nc(NC3(c4ccc(Cl)cc4)CC3)nc(OCC(F)(F)F)n2)cc1 [Compound 3248] | 0.01 to 10 |  | 
7 | O=C(NCC[C@H](NC(=O)c1ccc(Nc2nc(NC3(c4ccc(Cl)cc4)CC3)nc(OCC(F)(F)F)n2)cc1)C(=O)O)C(=O)Nc1cccc(CCc2ccccn2)c1 [Compound 3638] |  |  | EC50 [5]: 0.01 to 10 nM
8 | CCc1cccc(NC(=O)C(=O)NCC[C@H](NC(=O)c2ccc(Nc3nc(NC4(c5ccc(Cl)cc5)CC4)nc(OCC(F)(F)F)n3)cc2)C(=O)O)c1 [Compound 3614] |  |  | EC50 [5]: 0.01 to 10 nM
9 | COC(=O)[C@H](CCNC(=O)C(=O)Nc1ccc(N2CCCC2=O)cc1)NC(=O)c1ccc(Nc2nc(NC3(c4ccc(Cl)cc4)CC3)nc(OCC(F)(F)F)n2)cc1 [Compound 3126] | 0.01 to 10 |  | 
10 | CC(C)(CNC(=O)C(=O)Nc1ccc(-c2cscn2)cc1)CNC(=O)c1ccc(Nc2nc(NC3(c4ccc(Cl)cc4)CC3)nc(OCC(F)(F)F)n2)cc1 [Compound 1595] |  | 0.01 to 10 | 
11 | O=C(NC[C@H](NC(=O)c1ccc(Nc2nc(NC3(c4ccc(Cl)cc4)CC3)nc(OCC(F)(F)F)n2)cc1)C(=O)O)C(=O)Nc1ccc(Oc2cccnc2)cc1 [Compound 3290] | 0.01 to 10 |  | 
12 | NC(=O)C(=O)NCC1(CNC(=O)c2ccc(Nc3nc(NC4(c5ccc(Cl)cc5)CC4)nc(OCC(F)(F)F)n3)cc2)CC1 [Compound 3175] | 0.01 to 10 |  | EC50 [1]: 0.11 nM
13 | CC(C)(CNC(=O)C(=O)Nc1nc2ccc(S(N)(=O)=O)cc2s1)CNC(=O)c1ccc(Nc2nc(NC3(c4ccc(Cl)cc4)CC3)nc(OCC(F)(F)F)n2)cc1 [Compound 3825] |  |  | EC50 [5]: 0.01 to 10 nM
14 | CC(C)(CNC(=O)C(=O)Nc1ccon1)CNC(=O)c1ccc(Nc2nc(NC3(c4ccc(Cl)cc4)CC3)nc(OCC(F)(F)F)n2)cc1 [Compound 3040] | 0.01 to 10 |  | 
15 | Cc1ccc(NC(=O)C(=O)NCC(C)(C)CNC(=O)c2ccc(Nc3nc(NC4(c5ccc(Cl)cc5)CC4)nc(OCc4ccccc4F)n3)cc2)cc1 [Compound 3847] |  |  | EC50 (Huh-7, 48 h, HCV pseudoparticles, Huh7 cells, luciferase 2 days after infection, average of duplicates): 0.027 nM; EC50 [5]: 0.01 to 10 nM
16 | CC(C)(CNC(=O)C(=O)Nc1ccncc1)CNC(=O)c1ccc(Nc2nc(NC3(c4ccc(Cl)cc4)CC3)nc(OCC(F)(F)F)n2)cc1 [Compound 3241] | 0.01 to 10 |  | 
17 | COC(=O)[C@H](CNC(=O)C(=O)Nc1ccc(C)nc1)NC(=O)c1ccc(Nc2nc(NC3(c4ccc(Cl)cc4)CC3)nc(OCC(F)(F)F)n2)cc1 [Compound 3711] |  |  | EC50 [5]: 0.01 to 10 nM
18 | O=C(NC[C@H](NC(=O)c1ccc(Nc2nc(NC3(c4ccc(Cl)cc4)CC3)nc(OCC(F)(F)F)n2)cc1)C(=O)O)C(=O)Nc1ccc(N2CCCC2)nc1 [Compound 3776] |  |  | EC50 [5]: 0.01 to 10 nM
19 | COC(=O)[C@H](CNC(=O)C(=O)NCc1ccc(OC)c(OC)c1)NC(=O)c1ccc(Nc2nc(NC3(c4ccc(Cl)cc4)CC3)nc(OCC(F)(F)F)n2)cc1 [Compound 1152] |  | 0.01 to 10 | 

Row | Structure (SMILES) | EC50 [2] [nM] | EC50 [4] [nM] | also measured
20 | COC(=O)[C@@H](CCNC(=O)C(=O)NCC1(CN2CCOCC2)CC1)NC(=O)c1ccc(Nc2nc(NC3(c4ccc(Cl)cc4)CC3)nc(OCC(F)(F)F)n2)cc1 [Compound 1382] |  | 0.01 to 10 | 
21 | COC(=O)[C@H](CCNC(=O)C(=O)Nc1ccccn1)NC(=O)c1ccc(Nc2nc(NC3(c4ccc(Cl)cc4)CC3)nc(OCC(F)(F)F)n2)cc1 [Compound 1237] |  | 0.01 to 10 | EC50 [3]: 0.77 nM
22 | COC(=O)[C@H](CCNC(=O)C(=O)NCC(C)c1ccccc1)NC(=O)c1ccc(Nc2nc(NC3(c4ccc(Cl)cc4)CC3)nc(OCC(F)(F)F)n2)cc1 (stereo partly drawn) [Compound 1307] |  | 0.01 to 10 | EC50 [3]: 0.38 nM
23 | CCc1nccn1CC1(CNC(=O)C(=O)NCC[C@@H](NC(=O)c2ccc(Nc3nc(NC4(c5ccc(Cl)cc5)CC4)nc(OCC(F)(F)F)n3)cc2)C(=O)OC)CC1 [Compound 1386] |  | 0.01 to 10 | EC50 [3]: 2.76 nM
24 | COC(=O)[C@H](CNC(=O)C(=O)NC1CCCC(C)C1)NC(=O)c1ccc(Nc2nc(NC3(c4ccc(Cl)cc4)CC3)nc(OCC(F)(F)F)n2)cc1 (stereo partly drawn) [Compound 1059] |  | 0.01 to 10 | 
25 | COC(=O)[C@H](CNC(=O)C(=O)Nc1cccc(Cc2ccccc2)c1)NC(=O)c1ccc(Nc2nc(NC3(c4ccc(Cl)cc4)CC3)nc(OCC(F)(F)F)n2)cc1 [Compound 3714] |  |  | EC50 [5]: 0.01 to 10 nM
26 | COC(=O)[C@H](CNC(=O)C(=O)NC1CC(C)CC(C)(C)C1)NC(=O)c1ccc(Nc2nc(NC3(c4ccc(Cl)cc4)CC3)nc(OCC(F)(F)F)n2)cc1 (stereo partly drawn) [Compound 1060] |  | 0.01 to 10 | 
27 | COC(=O)[C@H](CNC(=O)C(=O)Nc1cccc(Cl)c1)NC(=O)c1ccc(Nc2nc(NC3(c4ccc(Cl)cc4)CC3)nc(OCC(F)(F)F)n2)cc1 [Compound 3685] |  |  | EC50 [5]: 0.01 to 10 nM
28 | O=C(NCC[C@H](NC(=O)c1ccc(Nc2nc(NC3(c4ccc(Cl)cc4)CC3)nc(OCC(F)(F)F)n2)cc1)C(=O)O)C(=O)Nc1cccc(-c2ncc[nH]2)c1 [Compound 3634] |  |  | EC50 [5]: 0.01 to 10 nM
29 | CCC1(CC)CC1CNC(=O)C(=O)NC[C@H](NC(=O)c1ccc(Nc2nc(NC3(c4ccc(Cl)cc4)CC3)nc(OCC(F)(F)F)n2)cc1)C(=O)OC (stereo partly drawn) [Compound 1459] |  | 0.01 to 10 | 
30 | CC(CNC(=O)C(=O)NCc1ccc(F)cc1)CNC(=O)c1ccc(Nc2nc(NC3(c4ccc(Cl)cc4)CC3)nc(OCC(F)(F)F)n2)cc1 (stereo not drawn) [Compound 3346] | 0.01 to 10 |  | EC50 [1]: 0.067 nM
31 | COC(=O)[C@H](CNC(=O)C(=O)NCc1cccc(F)c1F)NC(=O)c1ccc(Nc2nc(NC3(c4ccc(Cl)cc4)CC3)nc(OCC(F)(F)F)n2)cc1 [Compound 1148] |  | 0.01 to 10 | 
32 | CC(C)(CNC(=O)C(=O)Nc1cn[nH]c1)CNC(=O)c1ccc(Nc2nc(NC3(c4ccc(Cl)cc4)CC3)nc(OCC(F)(F)F)n2)cc1 [Compound 3033] | 0.01 to 10 |  | 
33 | COc1ccc(NC(=O)C(=O)NCC(C)(C)CNC(=O)c2ccc(Nc3nc(NC4(c5ccc(Cl)cc5)CC4)nc(OCC(F)(F)F)n3)cc2F)c(OC)c1 [Compound 3560] | 0.01 to 10 |  | 
34 | O=C(NCc1ccc(F)cc1)C(=O)N(CCO)CCCNC(=O)c1ccc(Nc2nc(NC3(c4ccc(Cl)cc4)CC3)nc(OCC(F)(F)F)n2)cc1 [Compound 3502] | 0.01 to 10 |  | 
35 | CC(CNC(=O)C(=O)N1CCCCC1)CNC(=O)c1ccc(Nc2nc(NC3(c4ccc(Cl)cc4)CC3)nc(OCC(F)(F)F)n2)cc1 (stereo not drawn) [Compound 3475] | 0.01 to 10 |  | 
36 | COc1ccc2nc(NC(=O)C(=O)NCC(C)(C)CNC(=O)c3ccc(Nc4nc(NC5(c6ccc(Cl)cc6)CC5)nc(OCC(F)(F)F)n4)cc3)sc2c1 [Compound 3816] |  |  | EC50 [5]: 0.01 to 10 nM
37 | CC(C)(CNC(=O)C(=O)Nc1cccc2ccccc12)CNC(=O)c1ccc(Nc2nc(NC3(c4ccc(Cl)cc4)CC3)nc(OCC(F)(F)F)n2)cc1 [Compound 3030] | 0.01 to 10 |  | 
